Where a name gives a salt, the structure may show the parent alone. Blank lines part the entries; values can stand above or below the molecule they belong to.
Experiments:
[1] = system: skin of Hartley strain guinea pig; test: Test 2 safety (sensitization) maximization test; format: in vivo; conditions: for Positivity: 3% induction, examined after 48 hours; for sensitizing potential: in words
Method: Safety (sensitization) was evaluated by a maximization test. An area of 4×6 cm^2 of skin on the scapula of a Hartley strain guinea pig (female) weighing 350 to 400 g was shaved and given intradermal injections with each three injections in two lines according to the following procedures: • (1)each 0.05 mL of Freunds' Complete Adjuvant (hereinafter simply called FCA) was intradermally injected at each one spot in the right and left sites. • (2) each 0.05 mL of a 3% fumaric acid diester derivative solution in ethanol of as a test sample was intradermally injected at another each one spot in the right and left sites. • (3) to a 6% fumaric acid diester derivative solution in FCA as a test sample, the same amount of sterilized water was added and resultant emulsified solution was intradermally injected at a right side and a left side sites in an amount of 0.05 mL.
At one week after the aforementioned procedures, the skin of the same sites was shaved and 10% of sodium lauryl sulfate in vaseline was applied to cause light inflammation. After 24 hours from the application, 0.2 mL of a 3% fumaric diester derivative solution in ethanol as a test sample, which was applied on a piece of gauze, was patched close on the same sites for 48 hours. On the 21st day after the intradermal injection, the abdominal area was shaved, to which a solution of a fumaric acid diester derivative in ethanolas a test sample, which was applied in a piece of gauze, was patched close for 24 hours. The symptoms in the skin were visually examined according to the following criteria after 48 hours.

[2] = system: dorsal skin of hairless mice; test: Test Example 8 inhibition of dry skin induced by retinoic acid (TEWL); format: in vivo
Method: The effect of inhibiting dry skin was investigated by the following test method in which the present fumarate was applied to the dry skin induced by retinoic acid. Hairless mice of 10 weeks old at the beginning of the test were used with five mice per group. […] Subsequently, 0.05 mL of a 0.05% retinoic acid solution in 50% ethanol aqueous solution was applied once a day for 4 days. During these 4 days, retinoic acid was applied in the morning, and, some hours later in the afternoon, the sample was applied. […] In Comparative Example 5, a control sample comprising the base alone was used instead of the sample. In Comparative Example 6, the base was always applied. The TEWL values after the application of the samples are as shown below.

[3] = system: amphiregulin mRNA; test: Test Example 7 inhibition of amphiregulin expression when used together with retinoic acid; format: cell-based, human; conditions: retinoic acid alone 1 μmol/L, 24 hours
Method: (§1) The amount of amphireglurin expression in the presence of retinoic acid in the keratinocytes was determined by the following method.
(§2) Cultured keratinocytes of human epidermis origin (ex Kurabo Corporation) were used.
(§3) Keratinocyte suspensions was adjusted to a concentration of 400×10^4 units/mL in an MCDB153 culture medium supplemented with BPE (bovine pituitary extract), insulin, ethanolamine, phosphoethanolamine, and hydrocortisone as growth promotors. Four milliliters of the cell suspension was inoculated to a 60 mm plate (ex Falcon Corporation). Under an atmosphere of 95% (v/v) air and 5% (v/v) carbon dioxide gas, a confluent state was achieved by static culturing at 37° C. for 3 days, while refreshing the culture every other day.
(§4) After removing the culture medium supernatant by suction, the culture medium was replaced with an MCDB 153 culture medium (containing insulin) to which bis(diethylene glycol monoethyl ether) fumarate at a final concentration of 300 μmol/L or dimethyl fumarate at 70 μmol/L, and optionally retinoic acid at 1 μmol/L had been added. This plate was subjected to static culturing at 37° C. for 24 hours under an atmosphere consisting of 95%(v/v) air and 5% (v/v) carbon dioxide gas. Using a QIAGEN™ RNA kit, whole mRNA was extracted.

[4] = system: G3PDH mRNA; test: Test Example 7 G3PDH mRNA in keratinocytes with retinoic acid; format: cell-based, human; conditions: retinoic acid alone 1 μmol/L, 24 hours
Method: as §1, §2, §3, §4

[5] = system: G3PDH mRNA; test: Test Example 4 G3PDH mRNA in keratinocytes (Northern blotting); format: cell-based; conditions: 24 hours, human keratinocytes
Excerpt: (§5) The HB-EGF expression rates were investigated by the following test methods where the compounds of the present invention were applied on the keratinocytes. Cultured keratinocytes of human epidermis origin, commercially available from Kurabo Corporation, were used. Keratinocyte susupension was adjusted to a concentration of 400×10^4 units/mL on an MCDB153 culture medium supplemented with BPE (bovine pituitary extract), insulin, ethanolamine, phosphoethanolamine, and hydrocortisone as growth promotors. Four milliliters of the cell suspension was inoculated to a 60 mm plate (ex Falcon Corporation). […] This plate was subjected to static culturing at 37° C. for 24 hours under an atmosphere consisting of 95% (v/v) air and 5% (v/v) carbon dioxide gas. Using a QIAGEN™ RNA kit, whole mRNA was extracted. […] The amount of each mRNA per total in the absence of the fumarate was measured as the control. The amount of mRNA in the presence of the fumarate was expressed in % relative to those of the control.

[6] = system: dorsal skin of aged hairless mice
Method: The following test method was used in order to investigate inhibition of reduction in the epidermis thickness when the compound of the present invention was applied on aged skin.
Experimental animals used included 2 groups of aged hairless mice of 33 weeks old at the beginning of the test with each 5 mice per group, and one group of 5 hairless mice of 9 weeks old at the beginning of the test.
A sample was prepared by adding bis(diethylene glycol monoethyl ether) fumarate to a 50% ethanol aqueous solution (base) at a concentration of 0.5%. This sample was applied in an amount of 0.05 mL on the dorsal skin of hairless mice (in a diameter of approximately 2.5 cm) once a day for consecutive 5 days per week followed by 2 days interval. This schedule was repeated for 4 weeks. Subsequently, a portion of the skin was sampled and a frozen section was prepared. The thickness of the epidermis was measured by microscopic observation.

[7] = system: hairless mouse dorsal skin (epidermal permeability barrier function disrupted by UVB); test: Test 1 epidermal permeability barrier function amelioration test (TEWL after UVB); format: in vivo, hairless mice (Hos: Hr-1); conditions: for TEWL change rate 3rd day / TEWL change rate 4th day: mean values
Method: An effect of improving epidermal permeability barrier function by applying the agents on the skin of which epidermal permeability barrier function has been disrupted was evaluated by the following test method. Male hairless mice (Hos: Hr-1) of 10 weeks old at the beginning of the test were used with each 5 mice per group. Transepidermal water loss (TEWL) was measured as follows using a continuous perspiration measurement device, Hydrograph AMU-100 (ex K & S Co., Ltd.). […] The amount of water vapor in the nitrogen gas was measured before the gas was fed to the capsule and after it was recovered from the capsule. […] The TEWL of the hairless mouse dorsal skin was first measured at the beginning of the test. Subsequently, 0.05 mL of each sample was applied on an area of approximately 2.5 cm diameter in the dorsal skin of the hairless mice once a day from Monday to Friday (pre-application). Then, on the third day from the last day of the pre-application, the skin was irradiated once with ultraviolet B ray (UVB) at a dose of 0.15 J/cm^2. […] TEWL changes with the degree of disruption of the epidermal permeability barrier function. A higher value of TEWL change rate implies a greater degree of disruption of the epidermal permeability barrier function. In the case of the application of the base alone, disruption in the epidermal permeability barrier function by UVB was similar to that in the case of non-application.

[8] = system: HB-EGF mRNA; test: Test Example 4 HB-EGF expression rate in keratinocytes (Northern blotting); format: cell-based, human; conditions: for Amount of mRNA, % relative to the control, HB-EGF: 24 hours, human keratinocytes
Excerpt: as §5

[9] = system: amphiregulin mRNA; test: Test Example 6 inhibition of the expression of amphiregulin in keratinocytes; format: cell-based; conditions: 24 hours, human keratinocytes
Method: (§6) The amount of expression of amphiregulin in the keratinocytes was determined by the following test method. Cultured keratinocytes of human epidermis origin (ex Kurabo Corporation) were used. Keratinocyte suspension was adjusted to a concentration of 150×10^4 units/mL in an MCDB153 culture medium supplemented with BPE (bovine pituitary extract), insulin, ethanolamine, phosphoethanolamine, and hydrocortisone as growth promotors. Four milliliters of the cell suspension was inoculated to a 60 mm plate (ex Falcon Corporation). […] This plate was subjected to static culturing at 37° C. for 24 hours under an atmosphere consisting of 95% (v/v) air and 5% (v/v) carbon dioxide gas. Using a QIAGEN™ RNA kit, whole mRNA was extracted. […] The amount of each mRNA per total in the absence of the fumarate was measured as the control. The amount of mRNA in the presence of the fumarate was expressed in % relative to those of the control. (2) Results

[10] = system: G3PDH mRNA; test: Test Example 6 G3PDH mRNA in keratinocytes; format: cell-based; conditions: 24 hours, human keratinocytes
Method: as §6

[11] = system: dorsal skin of hairless mice; test: Test Example 9 depression of UV-induced epidermal hyperproliferation; format: in vivo; conditions: 0.5% in 50% ethanol, 4 weeks pre-application, UVB 0.15 J/cm^2, 4th day after the irradiation; mean values
Method: The inhibition of epidermal hyperproliferation was investigated by the following test method in which the present fumarate was applied to the skin where epidermal hyperproliferation had been induced by UV irradiation Hairless mice of 10 weeks old at the beginning of the test were used with 5 mice per group. […] The animals were slaughtered on the 4th day after the irradiation and skin section were made. From the section, tissue section samples were prepared by HE staining. The samples prepared were photographed using an light microscope. In the microscopic photographs, the thickness of the epidermis was measured. Using the epidermis thickness at the beginning of the test as a standard, the mean values were compared between the control group and the treated groups.

[12] = 0.5% sample 5 days pre-application, then 0.05% retinoic acid once a day for 4 days with sample in the afternoon
[13] = Table 1, concentration 1% in 50% aqueous ethanol, 0.05 mL once a day, 3rd day after UVB 0.15 J/cm^2
[14] = Table 1, concentration 1% in 50% aqueous ethanol, 4th day after UVB 0.15 J/cm^2

Molecule: CCOC(=O)/C=C/C(=O)OCC [Diethyl fumarate]
Positivity [1]: 90%
sensitizing potential [1]: sensitizating potential

Mean value of TEWL ([2]; 0.05% retinoic acid once a day for 4 days, base alone instead of the sample (no fumarate)): 0.110 mg/cm^2/min.
Molecule: CC1=C(/C=C/C(C)=C/C=C/C(C)=C/C(=O)O)C(C)(C)CCC1 [Retinoic acid]
Amount of mRNA, % relative to the control, Amphiregulin [3]: 300%
Amount of mRNA, % relative to the control, G3PDH [4]: 105%

Molecule: CCOCCOCCOC(=O)/C=C/C(=O)OCCOCCOCC [bis(diethylene glycol monoethyl ether) fumarate]
Amount of mRNA, % relative to the control, G3PDH ([5]; 300 μmol/L): 98%
Mean values of the epidermis thickness ([6]; 33 weeks old hairless mice, 0.5% in 50% ethanol, 0.05 mL once a day 5 days per week for 4 weeks): 20.96 μm
inhibition of thinning of the epidermis due to aging ([6]; in words, compared to the non-treatment): thinning of the epidermis due to aging was clearly inhibited
Mean value of TEWL [2, 12]: 0.055 mg/cm^2/min.
Positivity [1]: 0%
sensitizing potential [1]: no sensitizing potential
TEWL change rate 3rd day [7, 13]: 3.25
TEWL change rate 4th day [7, 14]: 2.49
TEWL change rate 3rd day ([7]; Table 2, first value column, concentration 0.001%): 7.01
TEWL change rate 3rd day ([7]; Table 2, first value column, concentration 0.01%): 6.46
TEWL change rate 3rd day ([7]; Table 2, first value column, concentration 0.1%): 3.79
TEWL change rate 3rd day ([7]; Table 2, first value column, concentration 1%): 3.62
TEWL change rate 3rd day ([7]; Table 2, second value column, concentration 0.001%): 7.31
TEWL change rate 3rd day ([7]; Table 2, second value column, concentration 0.01%): 6.84
TEWL change rate 3rd day ([7]; Table 2, second value column, concentration 0.1%): 5.21
TEWL change rate 3rd day ([7]; Table 2, second value column, concentration 1%): 4.33
amelioration of epidermal permeability barrier function ([7]; in words, compared to the base alone and diphenylethyl fumarate): clearly reduces disruption in the epidermal permeability barrier function by UVB
Amount of mRNA, % relative to the control, HB-EGF ([8]; 300 μmol/L): 380%
induction of HB-EGF expression ([8]; in words, 300 μmol/L): induced the expression of HB-EGF as strongly as dimethyl fumarate
Amount of mRNA, % relative to the control, Amphiregulin ([9]; 300 μmol/L): 8%
Amount of mRNA, % relative to the control, G3PDH ([10]; 300 μmol/L): 102%
Thickness of the epidermis [11]: 61.6 μm

Molecule: COC(=O)/C=C/C(=O)OC [Dimethyl fumarate, reference compound]
Amount of mRNA, % relative to the control, G3PDH ([5]; 50 μmol/L): 105%
Mean value of TEWL [2, 12]: 0.063 mg/cm^2/min.
TEWL change rate 3rd day [7, 13]: 3.24
TEWL change rate 4th day [7, 14]: 2.50
Amount of mRNA, % relative to the control, HB-EGF ([8]; 50 μmol/L): 470%
Amount of mRNA, % relative to the control, Amphiregulin ([9]; 70 μmol/L): 39%
Amount of mRNA, % relative to the control, G3PDH ([10]; 70 μmol/L): 98%
Thickness of the epidermis [11]: 40.4 μm

Molecule: COCCOC(=O)/C=C/C(=O)OCCOC [bis(ethylene glycol monomethyl ether) fumarate]
Positivity [1]: 90%
sensitizing potential [1]: sensitizating potential

Molecule: Diphenylethyl fumarate [reference compound]
TEWL change rate 3rd day ([7]; Table 1, concentration printed '.1I' %, 3rd day after UVB): 7.82
TEWL change rate 4th day ([7]; Table 1, concentration printed '.1I' %, 4th day after UVB): 6.57
